Assay results taken from patent US9598423B2 (BRISTOL-MYERS SQUIBB COMPANY, priority 2013, dated 2017).
pIC50: −log10 of the molar value.

What was measured:
CK1δ = CK1δ (Homo sapiens (Human), UniProt P48730); experiment: CK1δ kinase assay (Caliper LABCHIP electrophoretic separation of fluoresceinated peptide substrate and product); type: biochemical; details: 200 pM CK1δ, 50 μM ATP, 1.5 μM peptide substrate, 22 hours at room temperature; read-out: CK1δ (IC50)
Outline: (§1)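 Compounds, taken from 10 mM DMSO stocks, are titrated at eleven concentrations. Kinase reactions proceed for 22 hours at room temperature and are quenched with EDTA. Substrate and product are resolved electrophoretically, and IC50 values are fitted by non-linear regression.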

CK1ε = CK1ε (Homo sapiens (Human), UniProt P49674); experiment: CK1ε kinase assay (Caliper LABCHIP electrophoretic separation of fluoresceinated peptide substrate and product); type: biochemical; details: 200 pM CK1ε, 50 μM ATP, 1.5 μM peptide substrate, 22 hours at room temperature; read-out: CK1ε (IC50)
Outline: as §1

CK1ε, sequence (P49674 whole entry): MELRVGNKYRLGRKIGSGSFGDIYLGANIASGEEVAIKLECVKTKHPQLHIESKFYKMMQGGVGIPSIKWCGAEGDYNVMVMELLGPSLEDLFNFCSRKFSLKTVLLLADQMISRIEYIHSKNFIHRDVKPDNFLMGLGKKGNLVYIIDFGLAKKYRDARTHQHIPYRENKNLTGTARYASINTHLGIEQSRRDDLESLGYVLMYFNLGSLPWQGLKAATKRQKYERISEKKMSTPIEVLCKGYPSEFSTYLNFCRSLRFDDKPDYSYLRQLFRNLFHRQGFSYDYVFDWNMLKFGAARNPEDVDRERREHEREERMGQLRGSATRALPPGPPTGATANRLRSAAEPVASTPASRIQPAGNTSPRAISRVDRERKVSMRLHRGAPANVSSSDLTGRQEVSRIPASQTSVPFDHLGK
CK1δ, sequence (P48730 whole entry): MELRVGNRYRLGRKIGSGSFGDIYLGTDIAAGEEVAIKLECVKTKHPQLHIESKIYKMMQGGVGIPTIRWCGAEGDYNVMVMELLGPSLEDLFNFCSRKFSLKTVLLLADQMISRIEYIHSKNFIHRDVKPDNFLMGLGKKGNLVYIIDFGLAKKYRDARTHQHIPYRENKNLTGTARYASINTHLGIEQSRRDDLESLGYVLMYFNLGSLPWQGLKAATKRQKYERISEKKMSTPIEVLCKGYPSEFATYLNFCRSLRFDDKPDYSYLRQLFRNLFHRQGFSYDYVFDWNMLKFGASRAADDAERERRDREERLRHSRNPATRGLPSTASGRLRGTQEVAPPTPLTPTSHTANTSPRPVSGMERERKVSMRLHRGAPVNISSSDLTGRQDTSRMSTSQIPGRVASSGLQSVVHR

Row | Structure (SMILES) | pIC50 (CK1δ) | pIC50 (CK1ε)
1 | CC(C)(C)NC(=O)N1CCn2nc(-c3cncc(F)c3)c(C(N)=O)c2C1 [Compound 113, N^5-(tert-Butyl)-2-(5-fluoropyridin-3-yl)-6,7-dihydropyrazolo[1,5-a]pyrazine-3,5(4H)-dicarboxamide] | 7.00 to 8.00 | 5.70 to 7.00
2 | COc1ccc(NC(=O)N2CCn3nc(-c4cccc(F)c4)c(C(N)=O)c3C2)cc1 [Compound 51, 2-(3-Fluorophenyl)-N^5-(4-methoxyphenyl)-6,7-dihydropyrazolo[1,5-a]pyrazine-3,5(4H)-dicarboxamide] | 8.00 to 11.00 | 8.00 to 11.00
3 | Cc1cc(NC(=O)N2CCn3nc(-c4cnc(F)c(Cl)c4)c(C(N)=O)c3C2)ccc1C#N [Compound 294, 2-(5-Chloro-6-fluoropyridin-3-yl)-N^5-(4-cyano-3-methylphenyl)-6,7-dihydropyrazolo[1,5-a] pyrazine-3,5(4H)-dicarboxamide] | 8.00 to 11.00 | 8.00 to 11.00
4 | N#Cc1ccc(NC(=O)N2Cc3c(C(N)=O)c(-c4ccc(F)c(Cl)c4)nn3CC2C2CC2)cc1 (stereo not drawn) [Compound 341] | 5.70 to 7.00 | 5.70 to 7.00

Next, values leading:

Row | pIC50 (CK1δ) | pIC50 (CK1ε) | Structure (SMILES)
5 | 8.00 to 11.00 | 8.00 to 11.00 | CC1CN(C(=O)Nc2ccc(C#N)cc2)Cc2c(C(N)=O)c(-c3cccc(Cl)c3)nn21 (stereo not drawn) [Compound A13, 2-(3-Chlorophenyl)-N^5-(4-cyanophenyl)-7-methyl-6,7-dihydropyrazolo[1,5-a]pyrazine-3,5(4H)-dicarboxamide]
6 | 8.00 to 11.00 | 8.00 to 11.00 | CC(=O)N1CC2(C1)CN(C(=O)Nc1ccc(C#N)cc1)Cc1c(C(N)=O)c(-c3ccc(F)c(Cl)c3)nn12 [Compound A89, 1-Acetyl-2′-(3-chloro-4-fluorophenyl)-N^5′-(4-cyanophenyl)-4′H-spiro[azetidine-3,7′-pyrazolo[1,5-a]pyrazine]-3′,5′(6′H)-dicarboxamide]
